Read-outs that look alike come from different tables or passages of the source. Marks after values point to notes of the source that are not given here.
Assays:
Pseudomonas aeruginosa [1] = assay: Static biofilm formation assay (crystal violet); type: cell-based; details: for activity at 10 µM / activity at 100 µM: Pseudomonas aeruginosa, 24 h, Table 3, static; for activity at 10 µM: read-out: Relative biological activity (%) Biofilm formation 10; for activity at 100 µM: read-out: Relative biological activity (%) Biofilm formation 100; for Relative biological activity (%) Biofilm formation: Table 4, concentration not given
Protocol: (§1) Pseudomonas aeruginosa (P. aeruginosa) (OD 595 nm=1.0) was cultured overnight, and diluted in an AB medium (1:20; 300 mM NaCl, 50 mM MgSO4, 0.2% vitamin-free casamino acids, 10 mM potassium phosphate, 1 mM L-arginine, and 1% glucose, pH 7.5) together with a positive control or compound (0100 μM) in a borosilicate bottle. The resulting mixture was incubated without shaking at 37° C. for 24 hours, and to measure growth inhibition activity. OD 595 nm of the suspended culture was measured using a multimode plate reader. Biofilm cells attached to the bottle were washed twice with phosphate-buffered saline (PBS; 137 mM NaCl, 2.7 mM KCl, 10 mM Na2HPO4, and 2 mM KH2PO4, pH 7.2). Afterward, the remaining biofilm cells were stained with 0.1% crystal violet for 10 minutes, and to remove the unbound crystal violet, washed with deionized water. The crystal violet […] to the biofilm cells was eluted with 100% ethanol, and the OD of the eluted ethanol sample was measured at 545 nm using a multimode plate reader.

Pseudomonas aeruginosa [2] = assay: Bacterial growth under static condition (OD 595 nm of suspended culture); type: cell-based; details: for activity at 10 µM / activity at 100 µM: Pseudomonas aeruginosa, 24 h, Table 3; for activity at 10 µM: read-out: Relative biological activity (%) Bacterial growth 10; for activity at 100 µM: read-out: Relative biological activity (%) Bacterial growth 100; for Relative biological activity (%) Bacterial growth: Table 4, concentration not given
Protocol: as §1

RhlR = molecular target: T1, RhlR (Pseudomonas aeruginosa, UniProt P54292); assay: cell-based; details: for Relative RhIR Activity (%) Agonism 100 / Relative RhIR Activity (%) Agonism 1000: Table 3; for Relative RhIR Activity (%) Agonism 1000: 1000 (μM); for Relative RhIR activity (%) Agonism / Relative RhIR activity (%) Antagonism: Table 4, concentration not given; for remaining activity at 10 µM: read-out: Relative RhIR Activity (%) Antagonism 10, Table 3; for activity at 100 µM: read-out: Relative RhlR activity Agonism, Table 2, matches the 100 column of Table 3; for Relative RhlR activity Antagonism: Table 2
T1 construct: expressed in transfected cells; host or cells: E. coli sdiA variant co-transformed with pJN105R and pSC11 (RhlA::lacZ)
T1 sequence (P54292 whole entry): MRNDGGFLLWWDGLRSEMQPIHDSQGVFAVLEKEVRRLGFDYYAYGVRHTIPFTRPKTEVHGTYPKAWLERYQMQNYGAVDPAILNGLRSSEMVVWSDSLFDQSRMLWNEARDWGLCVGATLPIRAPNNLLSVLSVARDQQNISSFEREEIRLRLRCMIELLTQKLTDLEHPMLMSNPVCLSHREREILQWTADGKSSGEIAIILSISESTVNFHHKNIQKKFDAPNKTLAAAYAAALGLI
Protocol: Escherichia coli (E. coli) DH5a includes LuxR homolog SdiA detecting endogenous AHL synthesized by other microbial species, particularly, BHL.
For RhlR reporter strain analysis, the present invention used pJN105R (RhlR expression plasmid), anspSC11 (RhlA::lacZ fusion plasmid) and an sdiA variant co-transformed with the two plasmids. 1% of an overnight-cultured reporter strain (OD 595 nm=1.0) supplemented with 10 μg/mL gentamicin and 50 μg/mL ampicillin was cultured in a Luria-Bertani (LB) medium (Difco, Detroit, Mich., USA) with a positive control or a compound (0-1000 μM) and BHL (0-10 μM) (Sigma-Aldrich) at 37° C. for 2 hours. 0.4% arabinose (Sigma-Aldrich) was reacted with the resulting product at 37° C. for 1.5 hours. β-galactosidase activity was evaluated using a Tropix plus kit (Applied Biosystems, CA, USA), and OD 595 nm and luminescence were measured using a VICTOR x5 multimode plate reader (PerkinElmer, Waltham, Mass., USA). Relative RhlR activity was quantified by measuring luminescence at OD 595 nm. In addition, for LasR reporter strain analysis, the present invention used pJN105L (LasR expression plasmid) and pSC11 (lasI::lacZ fusion plasmid), E. coli DH5a co-transformed with the two plasmids, and OdDHL (Sigma-Aldrich).

P. aeruginosa = assay: Rhamnolipid production assay; type: cell-based, Pseudomonas aeruginosa; details: for activity at 10 µM / activity at 100 µM: Pseudomonas aeruginosa, 24 h, Table 3; for activity at 10 µM: read-out: Relative biological activity (%) Rhamnolipid production 10; for activity at 100 µM: read-out: Relative biological activity (%) Rhamnolipid production 100; for Relative biological activity (%) Rhamnolipid production: Table 4, concentration not given
Protocol: P. aeruginosa (OD 595 nm=1.0) cultured overnight was inoculated in an AB medium (1:100) with a positive control or compound (0100 μM), and incubated using a shaking culture for 24 hours at 37° C. The cell culture was centrifuged for 5 minutes at 4° C. and 12,000 g. Rhamnolipids were extracted twice by mixing 200 μL of a supernatant and 400 μL of 100% diethyl ether (JUNSEI, Tokyo, Japan). The supernatant was transferred to a new tube and evaporated. A dried sample was eluted with 20 μL of deionized water, and reacted with 180 μL of an Orcinal solution (0.19% Orcinal (Sigma-Aldrich) in 53% H2SO4). The reaction mixture was heated for 30 minutes at 80° C., and cooled for 15 minutes at room temperature. The amount of rhamnolipids was measured at OD 421 nm, and normalized in the cell culture solution at OD 595 nm using a multimode plate reader.

[3] = read-out: Relative RhIR Activity (%) Antagonism 100, Table 3, 100 (μM)
[4] = read-out: Relative RhlR activity Antagonism, Table 2, footnotes not given, 100 μM per Table 3, lower = stronger antagonism
[5] = footnotes not given, 100 μM per Table 3, lower = stronger antagonism

| Structure (SMILES) | activity at 10 µM (Pseudomonas aeruginosa [1]) [%] | activity at 100 µM (Pseudomonas aeruginosa [1]) [%] | Relative biological activity (%) Biofilm formation (Pseudomonas aeruginosa [1]) | activity at 10 µM (Pseudomonas aeruginosa [2]) [%] | activity at 100 µM (Pseudomonas aeruginosa [2]) [%] | Relative biological activity (%) Bacterial growth (Pseudomonas aeruginosa [2]) | Relative RhIR Activity (%) Agonism 100 (RhlR; 100 (μM)) | Relative RhIR Activity (%) Agonism 1000 (RhlR) | Relative RhIR activity (%) Agonism (RhlR) | remaining activity at 10 µM (RhlR) [%] | remaining activity at 100 µM (RhlR; [3]) [%] | activity at 100 µM (RhlR; footnotes not given) [%] | remaining activity at 100 µM (RhlR; [4]) [%] | activity at 10 µM (P. aeruginosa) [%] | activity at 100 µM (P. aeruginosa) [%] | Relative biological activity (%) Rhamnolipid production (P. aeruginosa) | Relative RhIR activity (%) Antagonism (RhlR) | Relative RhlR activity Antagonism (RhlR; [5]) |
| --- | --- | --- | --- | --- | --- | --- | --- | --- | --- | --- | --- | --- | --- | --- | --- | --- | --- | --- |
| CCCC(O)CC(=O)/C=C/c1cccc(OC)c1 (stereo not shown) [Compound 11c, (E)-5-Hydroxy-1-(3-methoxyphenyl)oct-1-en-3-one] | 88 | 73 | 82* % | 96 | 95 | 101% | 2** % | 4** % | 2** % | 89 | 94 | 2 | 94 | 91 | 83 | 95% | – | – |
| CCCC(O)C#Cc1ccc(F)c(F)c1 (racemic) [Compound 33a, 1-(3,4-Difluorophenyl)hex-1-yn-3-ol] | 73 | 60 | – | 100 | 104 | – | 3** % | 5** % | – | 45 | 32 | 3 | 32 | – | 49 | – | – | – |
| CCCCCCCCC(O)CC(=O)CCc1ccc(O)c(OC)c1 (stereo not shown) [Compound 7, 5-Hydroxy-1-(4-hydroxy-3-methoxyphenyl)tridecan-3-one] | – | – | 79** % | – | – | 89% | – | – | 2** % | – | – | 2 | 41 | – | – | 69* % | 41** % | – |
| CCCCCC(O)C#Cc1ccc(O)c(OC)c1 (racemic) [Compound 23a, 4-(3-Hydroxyoct-1-yn-1-yl)-2-methoxyphenol] | – | – | 80* % | – | – | 98% | – | – | 3** % | – | – | 3 | 32 | – | – | 85% | 32** % | 32** % |
| CCCC(O)CC(=O)/C=C/c1ccc(OC)cc1 (stereo not shown) [Compound 11f, (E)-5-Hydroxy-1-(4-methoxyphenyl)oct-1-en-3-one] | – | – | 75* % | – | – | 102% | – | – | 1** % | – | – | 1 | 55 | – | – | 88% | 55** % | 55** % |
| CCC[C@@H](O)C#Cc1ccc(F)c(F)c1 [Compound 33b, (R)-1-(3,4-Difluorophenyl)hex-1-yn-3-ol] | 74 | 60 | – | 98 | 102 | – | 3** % | 5** % | – | 45 | 25 | 3 | 25 | 60 | 48 | – | – | – |
| CCCC(O)CC(=O)/C=C/c1ccc(O)c(O)c1 (stereo not shown) [Compound 11k, (E)-1-(3,4-Dihydroxyphenyl)-5-hydroxyoct-1-en-3-one] | 84 | 72 | – | 99 | 104 | – | 3** % | 5** % | – | 60 | 43 | 3 | 43 | 56 | 50 | – | – | – |
| CCCCC[C@@H](O)C#Cc1ccc(O)c(OC)c1 [Compound 23b, (R)-4-(3-Hydroxyoct-1-yn-1-yl)-2-methoxyphenol] | – | – | 79* % | – | – | 100% | – | – | 3** % | – | – | 3 | 27 | – | – | 77* % | 27** % | 27** % |
| CCCC(O)CC(=O)/C=C/c1ccc(O)c(OC)c1 (stereo not shown) [Compound 11a, (E)-5-Hydroxy-1-(4-hydroxy-3-methoxyphenyl)oct-1-en-3-one] | 82 | 65 | 81* % | 102 | 95 | 101% | 4** % | 5** % | 4** % | 73 | 65 | 4 | 65 | 73 | 57 | 67* % | – | 65** % |
| CCCCCCCCCC(O)CC(=O)CCc1ccc(O)c(OC)c1 (stereo not shown) [Compound 8, 5-Hydroxy-1-(4-hydroxy-3-methoxyphenyl)tetradecan-3-one] | – | – | 80** % | – | – | 80** % | – | – | 2** % | – | – | 2 | 36 | – | – | 60* % | 36** % | – |
| CCCC[C@@H](O)C#Cc1ccc(F)c(F)c1 [Compound 34b, (R)-1-(3,4-Difluorophenyl)hept-1-yn-3-ol] | – | – | – | – | – | – | – | – | – | – | – | 3 | 67 | – | – | – | – | – |
| CCCC(O)CC(=O)CCc1cccc(OC)c1 (stereo not shown) [Compound 12c, 5-Hydroxy-1-(3-methoxyphenyl)octan-3-one] | – | – | – | – | – | – | – | – | – | – | – | 2 | 90 | – | – | – | – | – |
| CCCC(O)CC(=O)/C=C/c1cccc(O)c1 (stereo not shown) [Compound 11e, (E)-5-Hydroxy-1-(3-hydroxyphenyl)oct-1-en-3-one] | – | – | – | – | – | – | – | – | – | – | – | 2 | 78 | – | – | – | – | 78** % |
| CCCC(O)CC(=O)CCc1ccc(O)cc1 (stereo not shown) [Compound 12d, 5-Hydroxy-1-(4-hydroxyphenyl)octan-3-one] | – | – | – | – | – | – | – | – | – | – | – | 3 | 64 | – | – | – | – | – |
| CCCCCC(=O)CCc1ccc(O)c(OC)c1 [Compound 14b, 1-(4-Hydroxy-3-methoxyphenyl)octan-3-one] | – | – | – | – | – | – | – | – | – | – | – | 2 | 49 | – | – | – | – | 49** % |
